Test results published in the NIST ThermoML archive (doi:10.1016/j.tca.2016.12.008).
Values joined by “and” are separate entries in the source; they are usually repeats but may differ in a detail not shown here. Identical values can stand only once. ± gives the expanded uncertainty stated by the source.

Assays:
[1] = for Normal melting temperature: DTA
[2] = Molar enthalpy of transition or fusion; details: Crystal; DSC

Row | Structure (SMILES) | mass density ([1]; 293 K, 101.33 kPa, Crystal, X-ray diffraction) | Normal melting temperature ([1]; Crystal) | Glass transition temperature ([1]; Glass, DSC) | Molar enthalpy of transition or fusion [2] | Normal melting temperature ([1]; Crystal 1) | Triple point temperature ([1]; Crystal 2, DSC)
1 | CC(C)(C)C(=O)Oc1ccc2ccccc2c1-c1c(OC(=O)C(C)(C)C)ccc2ccccc12 | 1173 ± 6 kg/m3 | 156.20 ± 0.9 °C and 155.50 ± 0.5 °C | 25.00 ± 2 °C | 28.5 ± 0.8 kJ/mol |  | 
2 | Oc1ccc2ccccc2c1-c1c(O)ccc2ccccc12 [(1,1'-binaphthalene)-2,2'-diol] |  | 215.40 ± 0.5 °C |  | 31.2 ± 0.9 kJ/mol |  | 
3 | CC(C)(C)C(=O)Oc1ccc2ccccc2c1-c1c(OC(=O)C(C)(C)C)ccc2ccccc12 [(1,1'-binaphthalene)-2,2'-diyl bis(2,2-dimethylpropanoate)] |  |  |  |  | 123.80 ± 0.5 °C | 389.55 ± 1.3 K
4 | Oc1ccc2ccccc2c1-c1c(O)ccc2ccccc12 [(S)-(1,1'-binaphthalene)-2,2'-diol] |  | 209.20 ± 0.5 °C and 208.00 ± 0.5 °C |  | 30.9 ± 0.7 kJ/mol |  | 
